{"source": "patent US12551532B2", "about": "“Long-acting amylin receptor agonists and uses thereof” (Eli Lilly and Company, priority 2021, dated 2026)", "key": {"human dendritic cells": {"tested_on": "human dendritic cells", "type": "cell-based", "description": "MAPPS profiles the MHC-II presented peptides on human dendritic cells treated with tested molecules. CD14+ cells, isolated from the PBMCs of normal human donors, are cultured and differentiated into immature DCs by incubation with IL-4 and GM-CSF. On day 4, culture media is replaced with fresh media containing tested molecules. On day 5, LPS is added to transform the cells into mature DCs. On day 6, cells are lysed in RIPA buffer with protease inhibitors. Immunoprecipitation of MHC-II complexes are performed using biotinylated anti-MHC-II antibody coupled to streptavidin beads. The bound complex is eluted and filtered. The isolated MHC-II peptides are analyzed by a mass spectrometer. Peptide identifications are generated by an internal proteomics pipeline using search algorithms with no enzyme and a bovine/human database with test sequences appended to the database. A KNIME workflow is used to process the identification files from the samples. Peptides identified from the test articles are aligned against the parent sequence of the test molecule. The output is used to determine the percentage of donors displaying MHC-II peptides from regions of the test molecule. Compound II, Compound IV, Compound VI, Compound VIII, a compound representative of U.S. Pat. No. 9,023,789 (hereinafter “Compound '789”), and Pramlintide are tested in the MAPPs assay."}, "[1]": {"test": "DIO rats: Compound II alone and in combination with incretin compounds", "type": "in vivo, Long Evans rats", "details": "for Cumulative Food Intake: 14-day treatment period, mean±SEM", "description": "This study is conducted to investigate the effect of Compound II for diabetes and/or obesity conditions in DIO rats when administered in combination with other incretin compounds, including a GLP-1 agonist (Compound XVII), oxyntomodulin analog (Compound XVIII), and a triagonist of glucagon, GLP-1, and GIP (Compound XIX). Diet-induced obese (DIO) male Long Evans (Envigo) rats, maintained on a calorie rich diet since arrival at Lilly (TD95217; Teklad, Madison, WI), are used in the following studies. Animals are individually housed in a temperature-controlled (24° C.) facility with 12-hour light/dark cycle (lights on 2200) and free access to food (TD95217) and water.\nThe rats are randomized according to their body weight, so that each experimental group of animals would have similar body weight. The body weights range from 529 to 823 grams.\nEach group contains five rats. […] SC injections are made on Days 1, 4, 7, 10 and 13. Body weight and food intake are measured daily throughout the study. Absolute changes in body weight are calculated by subtracting the body weight of the same animal prior to the first injection of molecule.\nAt the end of the study, blood is collected to measure blood glucose and plasma insulin. Blood glucose is measured by AccuChek glucometers (Roche, Indianapolis, IN). Insulin is measured by ELISA (MSD, Rockville, MD).\nAll data are presented as mean±SEM of 5 animals per group. Statistical analysis is performed using one-way ANOVA, followed by Tukey's multiple comparison test to compare treatment groups to vehicle group or each other. Significant differences are identified at p<0.05."}}, "note": "Starred links: 1 amine or outer side, 2 acyl side, 3 side chain; linkers in the order of their positions; H or OH if unused. Non-standard residues stand in square brackets, D forms with d. Groups on a side chain read outwards from the residue. *: point of attachment. C20 diacid = O=C(O)CCCCCCCCCCCCCCCCCCC(=O)*; γGlu = O=C(O)[C@H](CCC(=O)[*:2])N[*:1]; AEEA = NCCOCCOCC(=O)O; Aib = CC(C)(N)C(=O)O"}
{"compound": "CC[C@H](C)[C@H](NC(=O)[C@@H]1CCCN1C(=O)CNC(=O)[C@H](Cc1ccccc1)NC(=O)[C@H](CC(N)=O)NC(=O)[C@H](CC(N)=O)NC(=O)[C@H](CO)NC(=O)[C@H](CO)NC(=O)[C@H](Cc1c[nH]cn1)NC(=O)[C@@H](NC(=O)[C@H](CC(C)C)NC(=O)[C@H](Cc1ccccc1)NC(=O)[C@H](CC(N)=O)NC(=O)[C@H](C)NC(=O)[C@H](CC(C)C)NC(=O)[C@H](CCCNC(=N)N)NC(=O)[C@H](CCC(N)=O)NC(=O)[C@@H](NC(=O)[C@H](C)NC(=O)[C@@H]1CSSC[C@H](NC(=O)[C@@H](N)CCCCN)C(=O)N[C@@H](CC(N)=O)C(=O)N[C@@H]([C@@H](C)O)C(=O)N[C@@H](C)C(=O)N[C@@H]([C@@H](C)O)C(=O)N1)[C@@H](C)O)C(C)C)C(=O)N[C@@H](CC(C)C)C(=O)N1CCC[C@H]1C(=O)N1CCC[C@H]1C(=O)N[C@H](C(=O)N[C@@H](CC(N)=O)C(=O)N[C@H](C(=O)NCC(=O)N[C@@H](CO)C(=O)N[C@@H](CC(N)=O)C(=O)N[C@H](C(=O)N[C@@H](Cc1ccc(O)cc1)C(N)=O)[C@@H](C)O)C(C)C)[C@@H](C)O", "note": "[Compound XV, reference compound]", "values": [{"measurement": "MAPPS Assay donors displayed peptides", "setting": "human dendritic cells", "result": "10/10"}, {"measurement": "MAPPS Assay immunogenicity risk", "setting": "human dendritic cells", "result": "High Risk"}, {"measurement": "peptides displayed on MHC-II complexes", "setting": "human dendritic cells", "result": "two peptide clusters that in total span residues 1-34"}, {"measurement": "T Cell Proliferation Assay: protein, immunogenicity risk", "setting": "CD4+ T cells", "result": "High Risk"}, {"measurement": "T Cell Proliferation Assay: protein, positive donors", "setting": "CD4+ T cells", "result": "(7/7 positive"}]}
{"compound": "Y-Aib-QGTFTSDYSI-αMeL-LDKK((2-[2-(2-Amino-ethoxy)-ethoxy]-acetyl)-(γGlu)-CO-(CH2)18-CO2H)AQ-Aib-AFIEYLLEGGPSSGAPPPS-NH2 (YXQGTFTSDYSIXLDKKAQXAFIEYLLEGGPSSGAPPPS; Aib, αMeL; lipidated Lys; C-terminal amide; SITE 2 X at position 2 is Aib; SITE 13 X at position 13 is alpha-methyl-leucine; MOD_RES 17 K at position 17 is chemically modified by conjugation of the epsilon-amino group of the lysine side chain with (2-[2-(2-amino-ethoxy)-ethoxy]-acetyl)-(gamma-glutamic acid)-CO-(CH2)18-CO2H; SITE 20 X at position 20 is Aib; MOD_RES 39 S at position 39 is amidated) [Compound XIX, triagonist of glucagon, GLP-1, and GIP]", "values": [{"measurement": "Body Weight Change", "setting": "[1]; 3 nmol/kg SC Day 1, 4, 7, 10, 13, Day 1 to Day 14, mean±SEM", "result": "-43.28 ± 2.54", "unit": "g"}, {"measurement": "Cumulative Food Intake", "setting": "[1]; 3 nmol/kg SC every three days", "result": "157.50 ± 10.63", "unit": "g"}]}
{"compound": "H-Aib-QGTFTSDYSKYLDEKKAK((2-[2-(2-Amino-ethoxy)-ethoxy]-acetyl)2-(γGlu)-CO-(CH2)18-CO2H)EFVEWLLEGGPSSG-NH2 (H-H[Aib]QGTFTSDYSKYLDEKKAK([AEEA-AEEA-γGlu-C20 diacid])EFVEWLLEGGPSSG-NH2) [Compound XVIII, oxyntomodulin analog]", "values": [{"measurement": "Body Weight Change", "setting": "[1]; 10 nmol/kg SC Day 1, 4, 7, 10, 13, Day 1 to Day 14, mean±SEM", "result": "-50.24 ± 6.36", "unit": "g"}, {"measurement": "Cumulative Food Intake", "setting": "[1]; 10 nmol/kg SC every three days", "result": "165.86 ± 7.45", "unit": "g"}]}
